Measurements from publication PMC5144078, “Bifidobacterium breve UCC2003 metabolises the human milk oligosaccharides lacto-N-tetraose and lacto-N-neo-tetraose through overlapping, yet distinct pathways” (Scientific Reports, 2016).

Assays:
Test in all cases: HPAEC-PAD product analysis
[1] = target: T1, LntA (LntAHis) (Bifidobacterium breve, UniProt D4BMY8); type: biochemical; conditions: 20 mM MOPS pH 7.0, 37 °C, 24 h, 1 mg/ml substrate
T1 construct: gene BIFBRE_03435; GH42 beta-galactosidase; purified His-tagged protein

[2] = target: T2, LacZ6 (LacZ6His) (Bifidobacterium breve, UniProt D4BR09); conditions: 20 mM MOPS pH 7.0, 37 °C, 24 h, 1 mg/ml substrate
T2 construct: gene BIFBRE_04539

[3] = target: T3, NahA (NahAHis) (Bifidobacterium breve, UniProt D4BR02); type: biochemical; conditions: MOPS pH 7.0, 37 °C; lacto-N-triose made in situ from LNT or LNnT by LntA, LntA heat-denatured before NahA addition
T3 construct: gene BIFBRE_04532; GH20 beta-N-acetylhexosaminidase; N-terminal His10 tag; gene of 660 codons; expressed in Lactococcus lactis NZ9000
T3 sequence (D4BR02 entry or part of it): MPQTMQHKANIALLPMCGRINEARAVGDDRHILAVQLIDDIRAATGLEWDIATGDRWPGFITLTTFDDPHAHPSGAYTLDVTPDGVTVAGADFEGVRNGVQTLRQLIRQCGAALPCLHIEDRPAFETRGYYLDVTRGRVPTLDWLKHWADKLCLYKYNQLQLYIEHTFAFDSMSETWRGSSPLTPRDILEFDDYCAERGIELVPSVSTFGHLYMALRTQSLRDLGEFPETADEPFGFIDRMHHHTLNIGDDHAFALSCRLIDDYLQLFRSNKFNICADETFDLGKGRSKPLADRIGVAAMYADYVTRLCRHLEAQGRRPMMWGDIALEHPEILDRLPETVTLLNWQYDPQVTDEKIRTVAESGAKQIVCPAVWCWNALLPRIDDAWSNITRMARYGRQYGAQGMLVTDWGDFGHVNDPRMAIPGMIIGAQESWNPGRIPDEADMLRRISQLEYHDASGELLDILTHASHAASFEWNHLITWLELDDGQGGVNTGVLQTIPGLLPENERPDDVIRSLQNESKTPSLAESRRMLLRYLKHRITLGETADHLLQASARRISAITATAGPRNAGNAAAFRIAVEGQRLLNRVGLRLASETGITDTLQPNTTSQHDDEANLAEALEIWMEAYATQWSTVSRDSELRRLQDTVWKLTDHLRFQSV

T1 sequence (D4BMY8 1-691): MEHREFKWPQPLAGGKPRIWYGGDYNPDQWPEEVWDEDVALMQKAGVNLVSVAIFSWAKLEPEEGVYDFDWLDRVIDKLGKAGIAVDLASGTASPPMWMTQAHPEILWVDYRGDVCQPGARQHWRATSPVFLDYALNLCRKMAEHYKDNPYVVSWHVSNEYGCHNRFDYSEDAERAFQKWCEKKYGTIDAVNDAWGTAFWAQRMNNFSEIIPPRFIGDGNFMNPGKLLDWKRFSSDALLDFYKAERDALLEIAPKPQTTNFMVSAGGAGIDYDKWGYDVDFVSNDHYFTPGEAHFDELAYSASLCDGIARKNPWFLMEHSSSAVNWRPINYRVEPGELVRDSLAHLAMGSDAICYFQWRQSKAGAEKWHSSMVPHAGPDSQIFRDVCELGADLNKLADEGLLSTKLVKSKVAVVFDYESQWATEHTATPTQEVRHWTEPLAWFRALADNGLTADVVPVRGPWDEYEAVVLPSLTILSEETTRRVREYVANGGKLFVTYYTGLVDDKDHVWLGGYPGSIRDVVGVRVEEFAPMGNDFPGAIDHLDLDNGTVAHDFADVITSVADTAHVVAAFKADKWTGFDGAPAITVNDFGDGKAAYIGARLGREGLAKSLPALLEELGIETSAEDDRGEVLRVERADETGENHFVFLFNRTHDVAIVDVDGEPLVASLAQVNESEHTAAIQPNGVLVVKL
T2 sequence (D4BR09 1-1045): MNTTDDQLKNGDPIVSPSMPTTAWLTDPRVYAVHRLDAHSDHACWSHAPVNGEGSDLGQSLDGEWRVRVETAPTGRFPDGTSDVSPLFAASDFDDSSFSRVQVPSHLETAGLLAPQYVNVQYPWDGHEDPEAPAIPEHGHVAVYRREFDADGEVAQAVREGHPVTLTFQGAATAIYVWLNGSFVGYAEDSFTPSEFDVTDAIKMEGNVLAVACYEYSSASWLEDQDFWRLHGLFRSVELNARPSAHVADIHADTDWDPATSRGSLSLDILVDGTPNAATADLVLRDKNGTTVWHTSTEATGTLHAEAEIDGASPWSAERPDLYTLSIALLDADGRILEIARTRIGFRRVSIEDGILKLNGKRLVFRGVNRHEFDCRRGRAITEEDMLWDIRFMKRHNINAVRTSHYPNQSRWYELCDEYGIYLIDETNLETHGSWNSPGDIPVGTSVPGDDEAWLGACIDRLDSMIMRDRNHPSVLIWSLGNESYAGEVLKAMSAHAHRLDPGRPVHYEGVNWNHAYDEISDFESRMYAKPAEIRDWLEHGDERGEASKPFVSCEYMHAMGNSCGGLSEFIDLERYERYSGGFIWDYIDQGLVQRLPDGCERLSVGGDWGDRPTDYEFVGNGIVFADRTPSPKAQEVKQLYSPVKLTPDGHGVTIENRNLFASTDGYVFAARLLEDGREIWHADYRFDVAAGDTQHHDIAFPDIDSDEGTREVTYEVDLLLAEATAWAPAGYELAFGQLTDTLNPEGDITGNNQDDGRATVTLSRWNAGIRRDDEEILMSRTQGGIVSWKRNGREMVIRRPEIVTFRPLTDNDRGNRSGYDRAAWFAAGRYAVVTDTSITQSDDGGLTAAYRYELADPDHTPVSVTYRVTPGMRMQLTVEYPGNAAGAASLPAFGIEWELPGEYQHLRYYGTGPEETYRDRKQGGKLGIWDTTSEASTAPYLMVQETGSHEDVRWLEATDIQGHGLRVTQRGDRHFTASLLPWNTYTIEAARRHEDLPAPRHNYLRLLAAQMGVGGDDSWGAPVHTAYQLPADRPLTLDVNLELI

SMILES | HPAEC-PAD product analysis [1] | HPAEC-PAD product analysis [2] | HPAEC-PAD product analysis [3]
CC(=O)N[C@H]1[C@H](O[C@H]2[C@@H](O)[C@@H](CO)O[C@@H](O[C@H]3[C@H](O)[C@@H](O)C(O)O[C@@H]3CO)[C@@H]2O)O[C@H](CO)[C@@H](O)[C@@H]1O[C@@H]1O[C@H](CO)[C@H](O)[C@H](O)[C@H]1O (stereo partly shown) [LNT, lacto-N-tetraose] | Purified LntAHis was shown to remove the galactose moiety at the non-reducing end |  | 
CC(=O)N[C@H]1[C@H](O[C@H]2[C@@H](O)[C@@H](CO)O[C@@H](O[C@H]3[C@H](O)[C@@H](O)C(O)O[C@@H]3CO)[C@@H]2O)O[C@H](CO)[C@@H](O[C@@H]2O[C@H](CO)[C@H](O)[C@H](O)[C@H]2O)[C@@H]1O (stereo partly shown) [LNnT, lacto-N-neotetraose] | Purified LntAHis was capable of removing the galactose moiety at the non-reducing end of LNnT | Purified LacZ2His and LacZ6His were, under the conditions applied, also capable of hydrolysing LNnT | 
CC(=O)N[C@H]1[C@H](O[C@H]2[C@@H](O)[C@@H](CO)O[C@@H](O[C@H]3[C@H](O)[C@@H](O)C(O)O[C@@H]3CO)[C@@H]2O)O[C@H](CO)[C@@H](O)[C@@H]1O (stereo partly shown) [lacto-N-triose] |  |  | Lacto-N-triose is then hydrolysed by NahA, liberating Lactose and GlcNAc
